Results: patent US6991794B1, “Progenitor cell preservation factors and methods for and products of their use” (ImClone Systems Incorporated, priority 1997, dated 2006)

How the values were obtained:
[1] = molecular target: T1, Dl-FRIL (Lablab purpureus, UniProt Q9ZTA9); conditions: Mo et al., Glycobiology 1999; cited from earlier work
T1 sequence (Q9ZTA9 9-272): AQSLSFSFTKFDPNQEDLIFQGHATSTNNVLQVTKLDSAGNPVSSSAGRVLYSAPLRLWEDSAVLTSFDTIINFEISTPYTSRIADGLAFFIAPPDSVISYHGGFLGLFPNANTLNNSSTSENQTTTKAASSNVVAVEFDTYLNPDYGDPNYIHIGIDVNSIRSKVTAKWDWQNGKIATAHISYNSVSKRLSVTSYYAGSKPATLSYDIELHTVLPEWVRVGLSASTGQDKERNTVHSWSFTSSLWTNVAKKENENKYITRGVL
T1 sequence (Q9ZTA9 125-272 limits assumed): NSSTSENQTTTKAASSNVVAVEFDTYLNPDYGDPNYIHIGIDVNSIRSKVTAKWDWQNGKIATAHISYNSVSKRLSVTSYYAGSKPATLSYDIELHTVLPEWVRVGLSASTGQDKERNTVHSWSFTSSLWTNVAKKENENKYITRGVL

[2] = single dose 150 mg/kg (Lerner and Harrison); cited from earlier work
[3] = murine 5-FU chemoprotection model; conditions: 150 mg/kg intraperitoneally
Protocol: Administration of a second dose of 5-FU (also at 150 mg/kg) 3-7 days after the initial dose killed those stem cells and progenitors recruited into S-phase in response to the first treatment of 5-FU (Lerner and Harrison, supra).
Since FRIL and cytokines act on progenitors in the same concentration range (ng/ml), this pretreatment dose regimen was used to test whether Dl-FRIL can protect mice from 5-FU administered at 2 intervals in the first week: 5-FU (150 mg/kg) was injected at day 0 and then a second dose (also at 150 mg/kg) was injected either on day 3 (d0/3 dose interval) or day 5 (d0/5 dose interval).
Weight-matched BALB/c mice (10 mice/group) were injected intravenously with either with 0.2 mL of Dl-FRIL (500 mg/mL) or 0.2 mL of HBSS daily for 4 days. Two hours after the final treatment of Dl-FRIL, mice were injected intraperitoneally with 5-FU (150 mg/kg). Groups of mice received a second dose of 5-FU (150 mg/kg) at either day 3 or day 5.

[4] = molecular target: T2, murine extracellular domain of the Flt3 receptor fused to the transmembrane and intracellular domains of the human Fms (UniProt P07333+Q00342, A795S/A899S/C564L/C654D/C793H/C831G/D601N/D652H/D673E/D898N/DEL545-556/DEL576-597/DEL711-780/E609N/E612Q/E649S/E789R/E803A/E806A/E865D/F571P/F692T/F788L/F807S/G637D/G866C/H565Y/H671Q/H824N/I560L/I563L/I633L/I640L/I867V/I870V/INS558VACMSIMALLLL/INS573QVRWKII/INS599GNSYTFIDPTQLP/INS709AMLGPSLSPGQDPEGGVDYKNIHLEKKYVRRDSGFSSQGVDTYVEMRPVSTSSNDSFSEQDLD/K569Q/K650T/K800Q/K826H/K871Q/L602E/L684H/L690V/L783G/L815V/L840M/L863I/M626V/M665I/N627E/N784R/N900K/P896L/Q570K/Q641K/R572K/R624K/R708A/R848K/S619A/S634G/S639V/S653A/S685G/S706R/S809N/S841N/S844N/T636E/T667S/T787E/V561L/V616T/V638A/V785P/V811I/V822L/V828A/V846I/V889L/Y631F/Y689L/Y703F/Y796S); assay: mFlt3/Fms 3T3 biological screening assay (XTT); type: cell-based
T2 construct: consisting of the murine extracellular domain of the Flt3 receptor fused to the transmembrane and intracellular domains of the human Fms; expressed in transfected cells; host or cells: NIH 3T3 (mFlt3/Fms 3T3 cell line, provided by Dr. Ihor Lemischka)
T2 sequence (Q00342+P07333 with tags, fused parts or gaps Q00342:DEL545-556/Q00342:INS558VACMSIMALLLL/Q00342:I560L/Q00342:V561L/Q00342:I563L/Q00342:C564L/Q00342:H565Y/Q00342:K569Q/Q00342:Q570K/Q00342:F571P/Q00342:R572K/Q00342:INS573QVRWKII/Q00342:DEL576-597/Q00342:INS599GNSYTFIDPTQLP/Q00342:D601N/Q00342:L602E/Q00342:E609N/Q00342:E612Q/Q00342:V616T/Q00342:S619A/Q00342:R624K/Q00342:M626V/Q00342:N627E/Q00342:Y631F/Q00342:I633L/Q00342:S634G/Q00342:T636E/Q00342:G637D/Q00342:V638A/Q00342:S639V/Q00342:I640L/Q00342:Q641K/Q00342:E649S/Q00342:K650T/Q00342:D652H/Q00342:S653A/Q00342:C654D/Q00342:M665I/Q00342:T667S/Q00342:H671Q/Q00342:D673E/Q00342:L684H/Q00342:S685G/Q00342:Y689L/Q00342:L690V/Q00342:F692T/Q00342:Y703F/Q00342:S706R/Q00342:R708A/Q00342:INS709AMLGPSLSPGQDPEGGVDYKNIHLEKKYVRRDSGFSSQGVDTYVEMRPVSTSSNDSFSEQDLD/Q00342:DEL711-780/Q00342:L783G/Q00342:N784R/Q00342:V785P/Q00342:T787E/Q00342:F788L/Q00342:E789R/Q00342:C793H/Q00342:A795S/Q00342:Y796S/Q00342:K800Q/Q00342:E803A/Q00342:E806A/Q00342:F807S/Q00342:S809N/Q00342:V811I/Q00342:L815V/Q00342:V822L/Q00342:H824N/Q00342:K826H/Q00342:V828A/Q00342:C831G/Q00342:L840M/Q00342:S841N/Q00342:S844N/Q00342:V846I/Q00342:R848K/Q00342:L863I/Q00342:E865D/Q00342:G866C/Q00342:I867V/Q00342:I870V/Q00342:K871Q/Q00342:V889L/Q00342:P896L/Q00342:D898N/Q00342:A899S/Q00342:N900K): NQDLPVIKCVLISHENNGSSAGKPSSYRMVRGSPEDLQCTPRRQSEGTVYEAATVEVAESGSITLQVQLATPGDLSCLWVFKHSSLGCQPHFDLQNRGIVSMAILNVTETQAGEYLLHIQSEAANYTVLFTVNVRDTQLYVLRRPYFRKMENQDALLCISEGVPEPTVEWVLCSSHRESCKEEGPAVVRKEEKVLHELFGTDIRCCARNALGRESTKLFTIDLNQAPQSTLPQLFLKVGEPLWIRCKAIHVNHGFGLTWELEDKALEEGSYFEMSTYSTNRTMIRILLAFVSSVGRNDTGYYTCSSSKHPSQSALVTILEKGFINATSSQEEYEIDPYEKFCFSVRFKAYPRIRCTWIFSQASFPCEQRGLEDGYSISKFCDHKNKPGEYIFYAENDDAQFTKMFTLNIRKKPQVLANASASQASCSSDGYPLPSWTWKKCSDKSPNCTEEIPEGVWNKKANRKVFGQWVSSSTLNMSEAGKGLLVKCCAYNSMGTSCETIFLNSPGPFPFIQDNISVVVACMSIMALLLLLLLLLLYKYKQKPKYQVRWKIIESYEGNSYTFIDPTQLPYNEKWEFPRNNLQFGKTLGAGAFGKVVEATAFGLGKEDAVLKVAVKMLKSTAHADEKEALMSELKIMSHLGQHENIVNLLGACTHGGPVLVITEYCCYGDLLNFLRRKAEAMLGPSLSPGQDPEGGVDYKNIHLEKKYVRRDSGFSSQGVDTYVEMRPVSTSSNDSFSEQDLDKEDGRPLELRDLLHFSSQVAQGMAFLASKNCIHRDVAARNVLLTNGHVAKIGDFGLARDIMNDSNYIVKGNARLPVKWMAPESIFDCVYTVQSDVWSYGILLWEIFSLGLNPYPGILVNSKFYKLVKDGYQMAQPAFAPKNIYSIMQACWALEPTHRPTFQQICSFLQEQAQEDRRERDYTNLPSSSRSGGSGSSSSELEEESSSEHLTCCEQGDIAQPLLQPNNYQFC
Text: A biological screening assay to search for novel stimulators of the Flt3 receptor was developed using NIH 3T3 cells transfected with expression vectors containing cDNA of murine and human Flt3 and the related Fms receptor. The mFlt3/Fms 3T3 cell line is a 3T3 cell line transfected with nucleic acid encoding a fusion protein consisting of the murine extracellular domain of the Flt3 receptor fused to the transmembrane and intracellular domains of the human Fms (provided by Dr. Ihor Lemischka, Princeton University, Princeton, N.J.). The Stk 3T3 cell line is a 3T3 cell line transfected with the full-length human Flt3 receptor (provided by Dr. Donald Small, Johns Hopkins University, Baltimore, Md.). The human FMS 3T3 cell line is a 3T3 cell line transfected with the full-length human Fms receptor (provided by Dr. Charles Sherr, Saint Jude Children's Research Hospital, Memphis, Tenn. Parent 3T3 cells were purchased from American Type Culture Collection (“ATCC”; Manassas, Va.). Receptor-transfected cells contained Neo resistance genes and were maintained in medium containing 750 µg/ml of G418 (Life Technologies, Rockville, Md.).
To create factor-dependence for receptor-transfected 3T3 cells, growth conditions were compromised to permit only ligands to rescue cells from death. To do this, 3T3 cell lines were assayed in 96 well plates (Becton Dickinson Labware, Lincoln Park, N.J.) containing 3,000 cells in 100 μL of serum-free medium consisting of 10% AIMV (Life Technologies) and 90% DMEM. In each experiment, samples were serially diluted two-fold across rows starting at a 1:10 dilution. Viable cells were quantitated after 3-5 days by XTT (2,3-bis[Methoxy-4-nitro-5sulfophenyl]-2H-tetrazolium-5 carboxanilide inner salt) (Sigma, St. Louis, Mo.) (Roehm et al., supra). Relative activity (units/ml) and specific activity (units/mg) are defined as the reciprocal dilution at which half-maximal stimulation of cells was detected.

[5] = tested on: untransfected 3T3 cells; assay: untransfected parent 3T3 control cells (XTT); type: cell-based; conditions: Example 5 serum-free conditions
Protocol: Specifically, 3T3 cells cultured in tissue culture plates (Becton Dickinson Labware, Lincoln Park, N.J.) were removed from the plates by washing cells twice in Hank's buffered saline solution (HBSS; Gibco Laboratories, Grand Island, N.Y.). Non-enzymatic cell dissociation buffer (Gibco) was added for 15 minutes at room temperature. The resulting cells were washed in medium. FLT3 3T3 cells were cultured at a final concentration of 3,000 cells per well in a volume of 100 μL of serum-defined medium containing […] rhIL1-α, 10% AIMV (Gibco, Grand Island, N.Y.) and 90% Dulbecco's modification of Eagle's medium (DMEM; Gibco) in 96 well plates. […] Proliferation and cell survival was quantitated by addition of XTT (2, 3-bis[Methoxy-4-nitro-5sulfophenyl]-2H-tetrazolium-5 carboxanilide inner salt) (Diagnostic Chemicals Ltd, Charlottetown, Prince Edward Island, Canada), which is a […] cleaved by actively respiring cells (Roehm et al., J. Immunol. Methods 142: 257-265, 1991). Proliferation and cell survival was quantitated spectrophotometrically using a Vmax kinetic plate reader (Molecular Devices Corp., Mountain View, Calif.), and recorded as either relative activity (units/mL) or as specific activity (units/mg). One unit of biological activity was defined as the reciprocal dilution at which half-maximal stimulation of cells is detected. […]

[6] = molecular target: T3, full-length human Fms receptor (Homo sapiens, UniProt P07333); assay: Fms 3T3 biological screening assay (XTT); type: cell-based
T3 construct: The human FMS 3T3 cell line is a 3T3 cell line transfected with the full-length human Fms receptor; expressed in transfected cells; host or cells: NIH 3T3 (FMS 3T3 cell line, provided by Dr. Charles Sherr)
T3 sequence (P07333 20-972): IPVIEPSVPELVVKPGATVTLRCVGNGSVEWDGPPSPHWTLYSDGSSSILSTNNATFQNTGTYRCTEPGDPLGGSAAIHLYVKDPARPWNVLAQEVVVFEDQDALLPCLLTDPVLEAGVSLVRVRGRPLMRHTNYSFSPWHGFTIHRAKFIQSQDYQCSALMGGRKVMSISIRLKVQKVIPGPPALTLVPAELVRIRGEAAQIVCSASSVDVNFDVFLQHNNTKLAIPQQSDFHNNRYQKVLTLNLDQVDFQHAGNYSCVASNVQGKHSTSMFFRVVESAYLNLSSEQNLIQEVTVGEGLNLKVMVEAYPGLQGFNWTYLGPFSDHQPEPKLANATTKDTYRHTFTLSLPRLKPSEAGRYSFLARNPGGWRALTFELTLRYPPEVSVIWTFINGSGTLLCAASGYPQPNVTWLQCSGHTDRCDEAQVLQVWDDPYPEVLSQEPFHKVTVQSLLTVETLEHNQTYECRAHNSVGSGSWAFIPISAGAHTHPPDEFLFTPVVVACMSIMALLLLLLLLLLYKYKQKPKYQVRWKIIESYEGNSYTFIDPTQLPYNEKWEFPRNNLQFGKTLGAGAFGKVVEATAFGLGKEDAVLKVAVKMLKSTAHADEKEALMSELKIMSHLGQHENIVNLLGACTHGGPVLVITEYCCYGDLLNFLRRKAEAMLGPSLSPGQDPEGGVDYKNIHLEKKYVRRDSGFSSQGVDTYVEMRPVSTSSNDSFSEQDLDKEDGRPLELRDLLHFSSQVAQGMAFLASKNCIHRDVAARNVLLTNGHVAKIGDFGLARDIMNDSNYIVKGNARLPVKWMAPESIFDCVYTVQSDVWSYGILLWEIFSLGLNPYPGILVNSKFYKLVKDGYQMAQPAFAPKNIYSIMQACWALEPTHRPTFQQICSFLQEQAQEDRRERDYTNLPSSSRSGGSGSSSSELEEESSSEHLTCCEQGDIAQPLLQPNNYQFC
Text: A biological screening assay to search for novel stimulators of the Flt3 receptor was developed using NIH 3T3 cells transfected with expression vectors containing cDNA of murine and human Flt3 and the related Fms receptor. The mFlt3/Fms 3T3 cell line is a 3T3 cell line transfected with nucleic acid encoding a fusion protein consisting of the murine extracellular domain of the Flt3 receptor fused to the transmembrane and intracellular domains of the human Fms (provided by Dr. Ihor Lemischka, Princeton University, Princeton, N.J.). The Stk 3T3 cell line is a 3T3 cell line transfected with the full-length human Flt3 receptor (provided by Dr. Donald Small, Johns Hopkins University, Baltimore, Md.). […]
To create factor-dependence for receptor-transfected 3T3 cells, growth conditions were compromised to permit only ligands to rescue cells from death. […] Viable cells were quantitated after 3-5 days by XTT (2,3-bis[Methoxy-4-nitro-5sulfophenyl]-2H-tetrazolium-5 carboxanilide inner salt) (Sigma, St. Louis, Mo.) (Roehm et al., supra). Relative activity (units/ml) and specific activity (units/mg) are defined as the reciprocal dilution at which half-maximal stimulation of cells was detected. […]

OC[C@H]1O[C@H](O[C@H]2O[C@H](CO)[C@@H](O)[C@H](O)[C@H]2O)[C@H](O)[C@@H](O)[C@@H]1O [α,α-trehalose]
potency relative to mannose [1]: 3.6 fold

O=c1[nH]cc(F)c(=O)[nH]1 [5-FU, 5-fluorouracil]
reduction of bone marrow cellularity [2]: > 90% | deaths from a single dose [3]: No mice died

B1: M-CSF: Recombinant human M-CSF, ligand of the Fms receptor (protein)
chain: EEVSEYCSHMIGSGHLQSLQRLIDSQMETSCQITFEFVDQEQLKDPVCYLKKAFLLVQDIMEDTMRFRDNTPNAIAIVQLQELSLRLKSCFTKDYEEHDKACVRTFYETPLQLLEKVKNVFNETKNLLDKDWNIFSKNCNNSFAECSSQDVVTKPDCN
response of mFlt3/Fms 3T3 cells [4]: Neither the mFlt3/Fms 3T3 cells nor the parent untransfected 3T3 cells responded | response of parent untransfected 3T3 cells [5]: Neither the mFlt3/Fms 3T3 cells nor the parent untransfected 3T3 cells responded | response of Fms 3T3 cells [6]: responded to M-CSF in a dose-responsive manner
